Data: patent US8062651B1, “Attractant pheromone for the male pink hibiscus mealybug, Maconellicoccus hirsutus (Green) (Homoptera: Pseudococcidae)” (The United States of America as represented by the …, priority 2004, dated 2011)

Legend:
[1] = tested on: male M. hirsutus antennae; test: Coupled GC-EAD of male antennae; design: species or system Maconellicoccus hirsutus; details: GC-EAD of female airborne extracts
Protocol: Analytical Methods: The coupled gas chromatographic-electroantennographic detection (GC-EAD) system used was as previously described (Zhang, A., et al., J. Chem. Ecol., 23: […] (1997); Zhang, A., et al., J. Chem. Ecol., 25: 1221-1232 (1999); Zhang, A., and S. Polavarapu, J. Chem. Ecol., 29: 2153-2164 (2003)). A HP 6890 GC equipped with a 60 m×0.25-mm ID, 0.25-μm film-thickness DB-WAXETR (J&W Scientific Inc., Folsom, Calif.) capillary column in the splitless mode with hydrogen (1.4 ml/min) as carrier was used for analysis. The column temperature program was hold at 80° C. for 2 min, then heated to 250° C. at 15° C./min and held for 15 min. Electron impact mass spectrometry (EI mass) was conducted on a HP 6890 GC coupled to a HP 5973 Mass Selective Detector using an a 60 m×0.25-mm ID, 0.25-μm film-thickness DB-WAXETR capillary column at 50° C. for 2 min, then programmed to 230° C. at 15° C./min and held for 15 min or a 30 m×0.25-mm ID, 0.25-μm film-thickness DB-1 capillary column (50° C. for 2 min, then programmed to 300° C. at 15° C./min and held for 15 min) with helium as carrier gas. […] GC-Fourier transform infrared (FTIR) spectra were recorded on a HP GC coupled to a Bio-Rad IRD II infrared detector using a 60 m DB-WAXETR capillary column with conditions as described as above. […] NMR spectra were recorded in C6D6 solution on a Bruker QE Plus spectrometer at 300 MHz for ^1H. […]

[2] = tested on: male M. hirsutus antennae; details: alcoholic moieties found in volatile extracts; Zhang et al. 2004; cited from earlier work
[3] = tested on: male M. hirsutus; test: Field bioassay: sticky traps baited with rubber septa lures; type: in vivo, Maconellicoccus hirsutus; details: (R)-lavandulol and (R)-maconelliol together, equal amount to ester, 1 and 10-μg doses, 1:5
Protocol: Field Bioassays: Gray halo-butyl rubber septa (5 mm, West Pharmaceutical Services, Kearney, Nebr.) loaded with 1 μg of RS, SR, RR, and SS binary diastereoisomeric mixtures of two candidate pheromone compounds placed on white sticky cards (Pherocon V traps, Trécé, Salinas, Calif.) were used for the field trails in Florida. Treatments were arranged in a randomized complete block design with nine replicates and about ˜1 m between traps within replicates. The cards were attached to the top of metal rods and placed one foot above hibiscus plants in a hedgerow. Cards were collected, put separately in transparent plastic bags, and brought back to the laboratory to count the trapped male PHM under a microscope. Comparisons were made between candidate synthetic mixtures and a blank control trap.
Field bioassays: Gray halo-butyl rubber septa (5 mm, West Pharmaceutical Services, Kearney, Nebr.) were soxhlet extracted with acetone for 48 hr and dried in a fume hood before use. The cleaned septa were loaded with the desired rates of candidate pheromone components in ˜40 μl of hexane solution, and used for field tests. The same amount of hexane was loaded on septa for the blank controls. […]

Row | Compound | EAD response of male M. hirsutus antennae [1] | antennal activity [2] | effect on attraction to the RS isomers [3]
1 | CC[C@H](C)C(=O)OC[C@@H]1CC(=C(C)C)C1(C)C [compound 2, [(R)-2,2-Dimethyl-3-(1-methylethylidene)cyclobutyl]methyl (S)-2-methylbutanoate] | consistently responded |  | 
2 | C=C(C)[C@@H](CC=C(C)C)COC(=O)[C@@H](C)CC [compound 1, (R)-2-Isopropenyl-5-methylhex-4-enyl (S)-2-methylbutanoate] | consistently responded |  | 
3 | CC(C)=C1C[C@@H](CO)C1(C)C [(R)-maconelliol, [(R)-(−)-2,2-Dimethyl-3-(1-methylethylidene)cyclobutyl]methanol] |  | did not elicited any antennal activity | significantly reduced attraction
4 | C=C(C)[C@H](CO)CC=C(C)C [(R)-lavandulol, (R)-(−)-lavandulol, reference compound] |  | did not elicited any antennal activity | significantly reduced attraction
